Experimental data published in the supplement of paper PMC8617591.

Experiments:
[1] = tested on: Mycobacterium tuberculosis Erdman (autoluminescent); test: GRinf, maximum normalised growth rate inhibition (three-drug combination) (unitless (-1 to 1)); higher = less effect (negative = killing)
Protocol: (§1)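 DiaMOND equipotent three-drug combination dose responses (10 doses, 1.5- or 2-fold spacing, centred on IC90) against autoluminescent M. tuberculosis Erdman in 8 in vitro models. Read-out is OD600, or luminescence for the intracellular and dormancy models, normalised to untreated wells. Hill-fit Einf, AUC25 and GRinf are potency metrics; FIC50 and FIC90 are total Loewe fractional inhibitory concentrations as log2 (negative = synergy).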

[2] = tested on: Mycobacterium tuberculosis Erdman (autoluminescent); test: total FIC50 (Loewe) at 50% inhibition, three-drug combination (log2); higher = more antagonistic
Protocol: as §1

[3] = tested on: Mycobacterium tuberculosis Erdman (autoluminescent); test: Einf, fitted maximum growth inhibition of three-drug combination (fraction); higher = stronger maximal inhibition
Protocol: as §1

[4] = tested on: Mycobacterium tuberculosis Erdman (autoluminescent); test: AUC25, normalised area under dose response up to IC25 (three-drug combination) (fraction (0-1)); higher = more potent at low dose
Protocol: as §1

[5] = tested on: Mycobacterium tuberculosis Erdman (autoluminescent); test: total FIC90 (Loewe) at 90% inhibition, three-drug combination (log2); higher = more antagonistic
Protocol: as §1

COc1nc2ccc(Br)cc2cc1[C@@H](c1ccccc1)[C@@](O)(CCN(C)C)c1cccc2ccccc12 [bedaquiline] + NC(=O)c1cnccn1 [pyrazinamide] + CO[C@H]1/C=C/O[C@@]2(C)Oc3c(C)c(O)c4c(O)c(c(/C=N/N5CCN(C6CCCC6)CC5)c(O)c4c3C2=O)NC(=O)/C(C)=C\C=C\[C@H](C)[C@H](O)[C@@H](C)[C@@H](O)[C@@H](C)[C@H](OC(C)=O)[C@@H]1C [rifapentine]
Settings | AUC25, [4] | Einf, [3] | GRinf, [1] | total FIC50, [2] | total FIC90, [5]
in vitro model: acidic pH 5.7, time point: constant (~7 days, model-specific) | 0.105 | 0.951 | -0.444 | 0.212 | –
in vitro model: acidic pH 5.7, time point: terminal (~4-5 doublings, model-specific) | 0.0905 | 0.987 | -0.331 | 0.0918 | 0.167
in vitro model: intracellular J774, time point: constant = terminal | – | 0.984 | -0.419 | – | 0.111

Settings | AUC25, [4] | Einf, [3] | GRinf, [1] | total FIC50, [2] | total FIC90, [5]
in vitro model: butyrate, time point: constant (~7 days, model-specific) | 0.109 | 0.973 | -0.292 | 0.368 | 0.452
in vitro model: butyrate, time point: terminal (~4-5 doublings, model-specific) | 0.0948 | 0.995 | -0.264 | 0.608 | 0.896
in vitro model: cholesterol 0.05 mM, time point: constant (~7 days, model-specific) | 0.113 | 0.75 | -0.416 | – | –
in vitro model: cholesterol 0.05 mM, time point: terminal (~4-5 doublings, model-specific) | 0.0882 | 0.854 | -0.194 | 0.907 | –
in vitro model: cholesterol-high 0.2 mM, time point: constant (~7 days, model-specific) | 0.0619 | 0.959 | -0.405 | 0.688 | –
in vitro model: cholesterol-high 0.2 mM, time point: terminal (~4-5 doublings, model-specific) | 0.0597 | 1 | -0.644 | 1.1 | 0.6
in vitro model: dormancy (butyrate + nitrate, low O2), time point: constant (~7 days, model-specific) | 0.0664 | 0.907 | 0.181 | -0.395 | -0.492
in vitro model: dormancy (butyrate + nitrate, low O2), time point: terminal (~4-5 doublings, model-specific) | 0.0515 | 0.988 | -0.135 | 0.0969 | -0.227
in vitro model: standard 7H9 glycerol, time point: constant = terminal | 0.0752 | 0.917 | 0.0581 | -0.269 | –
in vitro model: valerate, time point: constant (~7 days, model-specific) | 0.0676 | 0.855 | -0.194 | 0.992 | –
in vitro model: valerate, time point: terminal (~4-5 doublings, model-specific) | 0.0334 | 0.939 | -0.182 | 0.965 | 0.779

COc1nc2ccc(Br)cc2cc1[C@@H](c1ccccc1)[C@@](O)(CCN(C)C)c1cccc2ccccc12 [bedaquiline] + NC(=O)c1cnccn1 [pyrazinamide] + CO[C@H]1/C=C/O[C@@]2(C)Oc3c(C)c(O)c4c(O)c(c(/C=N/N5CCN(C)CC5)c(O)c4c3C2=O)NC(=O)/C(C)=C\C=C\[C@H](C)[C@H](O)[C@@H](C)[C@@H](O)[C@@H](C)[C@H](OC(C)=O)[C@@H]1C [rifampicin]
Settings | AUC25, [4] | Einf, [3] | GRinf, [1] | total FIC50, [2] | total FIC90, [5]
in vitro model: acidic pH 5.7, time point: constant (~7 days, model-specific) | 0.0834 | 0.901 | -0.315 | 0.337 | –
in vitro model: acidic pH 5.7, time point: terminal (~4-5 doublings, model-specific) | 0.0711 | 0.981 | -0.241 | 0.285 | -0.207
in vitro model: intracellular J774, time point: constant = terminal | – | 0.999 | -0.44 | – | 0.24

Settings | AUC25, [4] | Einf, [3] | GRinf, [1] | total FIC50, [2] | total FIC90, [5]
in vitro model: butyrate, time point: constant (~7 days, model-specific) | 0.118 | 0.967 | -0.45 | 0.454 | 0.281
in vitro model: butyrate, time point: terminal (~4-5 doublings, model-specific) | 0.11 | 0.993 | -0.729 | 0.529 | 0.948
in vitro model: cholesterol 0.05 mM, time point: constant (~7 days, model-specific) | 0.102 | 0.776 | -0.214 | – | –
in vitro model: cholesterol 0.05 mM, time point: terminal (~4-5 doublings, model-specific) | 0.0832 | 0.929 | -0.267 | 1.1 | –
in vitro model: cholesterol-high 0.2 mM, time point: constant (~7 days, model-specific) | 0.0476 | 0.933 | -0.352 | 0.834 | –
in vitro model: cholesterol-high 0.2 mM, time point: terminal (~4-5 doublings, model-specific) | 0.0598 | 1 | -0.624 | 1.34 | 0.74
in vitro model: dormancy (butyrate + nitrate, low O2), time point: constant (~7 days, model-specific) | 0.0673 | 0.914 | 0.179 | -0.454 | -0.722
in vitro model: dormancy (butyrate + nitrate, low O2), time point: terminal (~4-5 doublings, model-specific) | 0.0465 | 0.984 | -0.139 | -0.149 | -0.476
in vitro model: standard 7H9 glycerol, time point: constant = terminal | 0.0766 | 0.913 | 0.0332 | 0.401 | –
in vitro model: valerate, time point: constant (~7 days, model-specific) | 0.0558 | 0.839 | 0.0298 | 0.905 | –
in vitro model: valerate, time point: terminal (~4-5 doublings, model-specific) | 0.032 | 0.935 | 0.00447 | 0.857 | 0.584
